Legend:
[1] = biological target: T1, Bromodomain-containing protein 4 (Homo sapiens, UniProt O60885); experiment: Binding affinity to human BRD4 BD1 expressed in Escherichia coli BL21 (DE3) assessed as dissociation constant by bromodomain analysis
[2] = biological target: T1, Bromodomain-containing protein 4; experiment: Binding affinity to human BRD4 BD2 expressed in Escherichia coli BL21 (DE3) assessed as dissociation constant by bromodomain analysis
[3] = system: Ty-82; experiment: Cytotoxicity against human Ty-82 cells assessed as growth inhibition incubated for 72 hrs by WST-1 assay; settings: TY82, 72 h
[4] = system: MV4-11; experiment: Cytotoxicity against human MV4-11 cells assessed as growth inhibition incubated for 72 hrs by WST-1 assay; settings: MV4-11, 72 h
[5] = Half life in rat at 5 mg/kg, po; settings: in vivo
[6] = in vivo; settings: rat, po, 5 mg/kg
Description: Tmax in rat at 5 mg/kg, po

[7] = in vivo; settings: rat, po, 5 mg/kg; remark: listed apart in the source
Description: Cmax in rat at 5 mg/kg, po

[8] = in vivo; settings: rat, po, 5 mg/kg; remark: listed apart in the source
Description: AUC (0 to t) in rat at 5 mg/kg, po

[9] = in vivo; settings: rat, po, 5 mg/kg; remark: listed apart in the source
Description: AUC (0 to infinity) in rat at 5 mg/kg, po

[10] = biological target: T1, Bromodomain-containing protein 4; experiment: Binding affinity to human BRD4 BD1 expressed in Escherichia coli BL21 (DE3) assessed as dissociation constant by ITC analysis
[11] = biological target: T1, Bromodomain-containing protein 4; experiment: Binding affinity to human BRD4 BD2 expressed in Escherichia coli BL21 (DE3) assessed as dissociation constant by ITC analysis
[12] = system: THP-1; experiment: Antiproliferative activity against human THP-1 cells assessed as growth inhibition incubated for 72 hrs by WST-1 assay; settings: THP-1, 72 h
[13] = system: MOLT-4; experiment: Antiproliferative activity against human MOLT-4 cells assessed as growth inhibition incubated for 72 hrs by WST-1 assay; settings: MOLT-4, 72 h
[14] = system: K562; experiment: Antiproliferative activity against human K562 cells assessed as growth inhibition incubated for 72 hrs by WST-1 assay; settings: K562, 72 h
[15] = system: Pfeiffer; experiment: Antiproliferative activity against human Pfeiffer cells assessed as growth inhibition incubated for 72 hrs by WST-1 assay
[16] = system: SUD4; experiment: Antiproliferative activity against human SU-DHL-4 cells assessed as growth inhibition incubated for 72 hrs by WST-1 assay; settings: SU-DHL-4, 72 h
[17] = system: U2932; experiment: Antiproliferative activity against human U2932 cells assessed as growth inhibition incubated for 72 hrs by WST-1 assay; settings: U2932, 72 h
[18] = system: BJAB; experiment: Antiproliferative activity against human BJAB cells assessed as growth inhibition incubated for 72 hrs by WST-1 assay
[19] = system: Daudi; experiment: Antiproliferative activity against human Daudi cells assessed as growth inhibition incubated for 72 hrs by WST-1 assay
[20] = system: Raji; experiment: Antiproliferative activity against human Raji cells assessed as growth inhibition incubated for 72 hrs by WST-1 assay
[21] = system: NCI-H1666; experiment: Antiproliferative activity against human NCI-H1666 cells assessed as growth inhibition incubated for 72 hrs by WST-1 assay; settings: NCI-H1666, 72 h
[22] = system: NCI-H1975; experiment: Antiproliferative activity against human NCI-H1975 cells assessed as growth inhibition incubated for 72 hrs by WST-1 assay; settings: NCI-H1975, 72 h
[23] = Antiproliferative activity against human SNU-2535 cells assessed as growth inhibition incubated for 72 hrs by WST-1 assay; settings: SNU-2535, 72 h
[24] = system: LS-1034; experiment: Antiproliferative activity against human LS1034 cells assessed as growth inhibition incubated for 72 hrs by WST-1 assay; settings: LS-1034, 72 h
[25] = system: T-24; experiment: Antiproliferative activity against human T24 cells assessed as growth inhibition incubated for 72 hrs by WST-1 assay; settings: T-24, 72 h
[26] = system: KU-19-19; experiment: Antiproliferative activity against human KU-19-19 cells assessed as growth inhibition incubated for 72 hrs by WST-1 assay; settings: KU-19-19, 72 h

| Compound | Kd [1] | Kd [2] | GI50 [3] | GI50 [4] | other results |
| --- | --- | --- | --- | --- | --- |
| Cc1nnc2c(NCCCCNC(=O)c3ccccc3Cl)nc3ccccc3n12 | 32 nM | 110 nM | 9600 nM |  |  |
| Cc1nnc2c(NCCCCNC(=O)OC(C)(C)C)nc3cc(C(=O)O)ccc3n12 | 36 nM | 220 nM | 650 nM |  |  |
| COc1ccc2c(c1)nc(OCCCCNC(=O)CC(C)C)c1nnc(C)n12 | > 5000 nM | > 5000 nM | > 10000 nM | > 10000 nM |  |
| COc1ccc2c(c1)nc(NCCCCNC(=O)CC(C)C)c1nnc(C)n12 |  |  |  |  | Kd [10]: 6.7 nM; Kd [11]: 293 nM |
| Cc1sc2c(c1C)C(c1ccc(Cl)cc1)=N[C@@H](CC(=O)Nc1ccc(O)cc1)c1nnc(C)n1-2 [BIRABRESIB] |  |  | 67 nM | 30 nM | GI50 [12]: 40 nM; GI50 [13]: > 10000 nM; GI50 [14]: > 10000 nM; GI50 [15]: 210 nM; GI50 [16]: 2800 nM; GI50 [17]: > 10000 nM; GI50 [18]: 130 nM; GI50 [19]: 4000 nM; GI50 [20]: > 10000 nM; GI50 [21]: > 10000 nM; GI50 [22]: > 10000 nM; GI50 [23]: > 10000 nM; GI50 [24]: > 10000 nM; GI50 [25]: 7900 nM; GI50 [26]: > 10000 nM |

More lines, main results first:

| Kd [1] | Kd [2] | Compound | GI50 [3] | GI50 [4] | other results |
| --- | --- | --- | --- | --- | --- |
| 40 nM | 190 nM | Cc1nnc2c(NCCCCNC(=O)OC(C)(C)C)nc3ccccc3n12 | 1000 nM | 980 nM | half-life [5]: 3.52 h; Tmax [6]: 0.667 h; Cmax [7]: 180 ng/mL; AUC(0-t) [8]: 574 ng·h/mL; AUC(0-inf) [9]: 851 ng·h/mL |
| > 5000 nM | > 5000 nM | Cc1nnc2c(NCCCCCCNC(=O)OC(C)(C)C)nc3ccccc3n12 | > 10000 nM |  |  |
| 29 nM | 180 nM | Cc1nnc2c(NCCCCNC(=O)c3ccccc3)nc3ccccc3n12 | 950 nM | 790 nM |  |
